The values below come from US10172826B2, “Composition and method to treat and alleviate symptoms of hot flashes in a subject” (U.S. NUTRACEUTICALS, LLC, priority 2015, dated 2019).

The conditions of data set [1]: major metabolite of sesamin; cited from earlier work.
The next data set addresses T1, aromatase (Homo sapiens, UniProt P11511).
T1 sequence (P11511 1-503): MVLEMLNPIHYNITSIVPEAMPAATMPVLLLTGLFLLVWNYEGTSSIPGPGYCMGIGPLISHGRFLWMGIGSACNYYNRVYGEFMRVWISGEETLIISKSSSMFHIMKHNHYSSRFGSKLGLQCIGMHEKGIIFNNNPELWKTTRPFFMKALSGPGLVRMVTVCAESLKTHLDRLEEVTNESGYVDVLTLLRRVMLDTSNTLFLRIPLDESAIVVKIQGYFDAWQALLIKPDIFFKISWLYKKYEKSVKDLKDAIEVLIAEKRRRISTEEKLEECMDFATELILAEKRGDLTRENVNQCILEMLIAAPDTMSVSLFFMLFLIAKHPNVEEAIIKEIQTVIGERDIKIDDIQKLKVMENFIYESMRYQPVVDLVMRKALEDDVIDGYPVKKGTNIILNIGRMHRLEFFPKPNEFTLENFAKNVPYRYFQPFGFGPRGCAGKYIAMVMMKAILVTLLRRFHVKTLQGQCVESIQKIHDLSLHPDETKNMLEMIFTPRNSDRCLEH
The following applies: cited from earlier work.

The subject of data set [2] is hot flashes in female subjects experiencing symptoms of perimenopause. Nature of the data set: Clinical trial of dietary supplement formulas on frequency and severity of hot flashes. The following applies: summary of the trials. Type of data set: in vivo, women. As for the experimental part: In a clinical trial explained below, 36 mg of HMR Lignan was used and in another example, 20 mg was initially used. In the same clinical trial, the carotenoid such as lycopene was used. The lycopene could be formed as a lycopene complex that includes at least one of phytoene, phytofluene, beta-carotene, tocopherols and phytosterols. In an example, 2 to 10 mg of lycopene was used and in another example, 4 to 8 mg of lycopene was used. In a clinical trial explained below, either 8 or 4 mg of lycopene was used and in an example, 0 mg in order to determine the efficacy of the lycopene relative to the HMR Lignan and other components. The composition also included 40 to 120 mg of Diindolymethane (DIM) or 30 to 140 mg of Diindolymethane, and in an example, 50 milligrams of DIM was used in one trial and 100 milligrams in another trial. About 40 to 80 mg of cranberry was used and in an example, 60 milligrams of cranberry was used as cranberry powder, which gave the coloring and other benefits. Cranberry is used to help relieve adverse urinary symptoms and aid and treat urinary tract infections. Other carotenoids that may possibly be used include at least one of astaxanthin, zeaxanthin, lutein, and xanthophylis.
A study was conducted to evaluate the effectiveness of a dietary supplement formulation on the reduction and severity of hot flashes in women. […]

For data set [3], the system named is estrogen sensitive human breast and endometrial cancer cells. The following applies: cell cycle progression in G0/G1 phase; cited from earlier work.
For data set [4] the following is noted: cited from earlier work.
The test system of data set [5] is endometrial, breast and lung cancer cell lines. The conditions noted are these: compared with alpha or beta-carotene; cited from earlier work.

In the case of `O=C1OC[C@H](Cc2cccc(O)c2)[C@H]1Cc1cccc(O)c1` [Enterolactone, enterolactone], the Elimination half life result in data set [1] is “less than 6 hours”. The Aromatase activity entry on aromatase is “inhibit aromatase activity”.

Take `CC(C)=CCC/C(C)=C/C=C/C(C)=C/C=C/C(C)=C/C=C/C=C(C)/C=C/C=C(C)/C=C/C=C(\C)CCC=C(C)C` [Lycopene]: the “Conclusion on control of hot flashes” value in data set [2] is “work alone to control hot flashes”. Also, the “Inhibition of IGF-1 induced proliferation” value in data set [3] is on record as “inhibit”. For the same molecule, the Solubility in water entry in data set [4] was “insoluble”. Besides, the “Inhibition of proliferation, relative potency” value in data set [5] is recorded as “more potent that alpha or beta-carotene”.
